What was measured:
[1] = target: T1, TOBRY986F (Homo sapiens, UniProt P48357+Q16288, Y986F); experiment: Luciferase reporter gene assay, TrkC-OB-R chimeric receptor TOBRY986F in neuroblastoma (NBFL) cells; format: cell-based; settings: NT-3 at 20 ng/ml for 36 hours
T1 construct: TrkC (amino acids 1 to 458) to the cytoplasmic domain of OB-R (amino acids 865-1165); expressed in transfected cells; host or cells: NBFL neuroblastoma cells

[2] = target: T2, TrkC--OB-R chimera (TOBR) (Homo sapiens, UniProt P48357+Q16288); experiment: Immunoprecipitation and western blotting of tyrosine phosphorylation, NT-3-stimulated COS cells expressing TOBR; format: cell-based; settings: 50 ng/ml human NT-3 for 15 min
T2 construct: TrkC (amino acids 1 to 458) to the cytoplasmic domain of OB-R (amino acids 865-1165); expressed in transfected cells; host or cells: COS-7
Description: The cytoplasmic domain and full-length human OB-R was cloned by PCR using human fetal liver and adipocyte cDNA (Clontech) and cloned into the expression vectors pCMX and pMT21. Chimeric receptors were constructed by fusing the extracellular domain and transmembrane domain of TrkC (amino acids 1 to 458) to the cytoplasmic domain of OB-R (amino acids 865-1165). A triple myc epitope tag was added at the C-terminus of all OB-R constructs (18). Truncation and point mutant constructs were generated by PCR and the sequences of all constructs were verified. Expression constructs were transfected into COS-7 cells using lipofectamine (GIBCO-BRL); 36-48 hours after transfection, cells were starved for either 2 hour,s for chimeric receptors or overnight for full-length receptors prior to stimulation.
Cells were stimulated with 50 ng/ml of human NT-3 for 15 min or 100 ng/ml of human leptin (R&D Systems) for 10 min. Cells were then lysed in a 1% Brij 96 buffer and receptor was immunoprecipitated with anti-myc antibody 9E10 (18) followed by protein G-sepharose (Pharmacia). Unbound lysate was then immunoprecipitated with anti-P-Tyr antibody (UBI, Lake Placid) or agarose-conjugated anti-SHP-2 antibody (Santa Cruz Biotechnology). […] Endogenous STAT3, SHP-2, Jak1 and Jak2 is being detected in all immunoblotting experiments. […]

[3] = target: T3, TOBR (TrkC-OB-R chimeric receptor) (Homo sapiens, UniProt P48357+Q16288); experiment: Luciferase reporter gene assay, TrkC-OB-R chimeric receptor TOBR in neuroblastoma (NBFL) cells; format: cell-based; settings: NT-3 at 20 ng/ml for 36 hours
T3 construct: TrkC (amino acids 1 to 458) to the cytoplasmic domain of OB-R (amino acids 865-1165); expressed in transfected cells; host or cells: NBFL neuroblastoma cells

[4] = test system: EPOR-cyto-Trx and GST-SHP1-SH2; experiment: Competition of EPOR-cyto-Trx for GST-SHP1-SH2 binding; settings: 4 μM peptide, 15 nM EPOR-cyto-P, 200 nM GST-SHP1-SH2
Description: FIG. 10. Competition for GST-SHP1-SH2 or GST-SHP2-SH2 binding to EPOR-cyto-P by a phosphopeptide derived from the sequence surrounding Y401 of the cytoplasmic domain of the EPO receptor. 200 nM GST-SHP1-SH2 or GST-SHP2-SH2, 15 nM EPOR-cyto-P, with and without 4 μM peptide were incubated together. GST-SHP1-SH2 or GST-SHP2-SH2 was immunoprecipitated with Glutathione Sepharose (Pharmacia), and co-precipitating EPOR-cyto-P was visualized with an anti-Trx antibody.
(§1) Bindings were done as immunoprecipitations. Binding concentrations were typically 200 nM GST-SHP2-SH2 or GST-SHP1-SH2 and 15 nM phosphopeptide or cytoplasmic domain fusion in TBST (20 mM Tris, 150 mM NaCl, 0.1% Tween 20, pH 7.4) at 4° C. overnight. After binding either anti-flag mAb, M2, was added (for the phosphopeptide and flag tagged GST-OB-R-cyto) or anti-myc mAb, 9E10, was added (for the myc tagged GST-OB-R-cyto) and the proteins were precipitated with protein G-sepharose. Proteins were then detected on western blots using anti-GST polyclonal antibodies. For the EPOR-cyto-Trx fusion, the protein complexes were precipitated with glutathione-sepharose and the EPOR-cyto-Trx fusion was detected with anti-Trx polyclonal antibodies.
In this competition the complexes were precipitated with glutathione-sepharose and the EPOR-cyto-Trx was detected by western blot using anti-Trx antibodies. […]

[5] = target: T4, GST-SHP1-SH2 (Homo sapiens, UniProt P29350); experiment: Binding to GST-SHP1-SH2 by immunoprecipitation and western blot; settings: 200 nM GST-SHP1-SH2, 15 nM phosphopeptide or cytoplasmic domain fusion, TBST, 4° C. overnight
T4 construct: Amino acids 2-221 of SHP1 were cloned as a EcoRI/BglII fragment into pGEX-3X; made in house; host or cells: E. coli
T4 sequence (P29350 2-221): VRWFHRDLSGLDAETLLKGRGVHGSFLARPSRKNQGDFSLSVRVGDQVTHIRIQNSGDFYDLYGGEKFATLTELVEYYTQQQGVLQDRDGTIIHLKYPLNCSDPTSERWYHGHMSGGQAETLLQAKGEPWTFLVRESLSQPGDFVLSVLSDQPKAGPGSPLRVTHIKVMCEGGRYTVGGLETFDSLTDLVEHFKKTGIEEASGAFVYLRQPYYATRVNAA
Description: The GST-SHP1-SH2 construct consists of the two SH2 domains of SHP1fused downstream of GST. Amino acids 2-221 of SHP1 were cloned as a EcoRI/BglII fragment into pGEX-3X and expressed in E. coli.
as §1

[6] = target: T5, GST-SHP2-SH2 (Homo sapiens, UniProt Q06124); experiment: Binding to GST-SHP2-SH2 by immunoprecipitation and western blot; settings: 200 nM GST-SHP2-SH2, 15 nM phosphopeptide or cytoplasmic domain fusion, TBST, 4° C. overnight
T5 construct: The fusion has aa 2-224 of SHP2 cloned as an EcoRI/BamHI fragment into pGEX-3X; made in house; host or cells: E. coli
T5 sequence (Q06124 2-224): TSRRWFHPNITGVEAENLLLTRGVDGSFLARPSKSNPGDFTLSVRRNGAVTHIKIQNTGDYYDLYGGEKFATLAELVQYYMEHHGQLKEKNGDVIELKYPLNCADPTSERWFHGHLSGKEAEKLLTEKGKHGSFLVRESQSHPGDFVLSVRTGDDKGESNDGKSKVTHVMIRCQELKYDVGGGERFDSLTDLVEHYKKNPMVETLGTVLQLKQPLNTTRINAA
From the text: The GST-SHP2-SH2 construct consists of the two SH2 domains of SHP2fused downstream of glutathione-S-transferase (GST) from Schistosoma japonicum. The fusion has aa 2-224 of SHP2 cloned as an EcoRI/BamHI fragment into pGEX-3X and was expressed in E. coli. The SHP2-SH2-Fc construct consists of the same amino acids as the above fusion fused to human IgG-Fc as a BlpI/SrfI fragment in pMT21 and was expressed in COS-7 cells.
as §1

[7] = target: T6, GST-OB-R-cyto/3myc and GST-SHP2-SH2 (Homo sapiens, UniProt Q06124); experiment: Competition for binding of GST-OB-R-cyto/3myc and GST-SHP2-SH2; settings: 4 μM phosphopeptide, 15 nM cytoplasmic domain, 200 nM GST-SHP2-SH2
T6 construct: The fusion has aa 2-224 of SHP2 cloned as an EcoRI/BamHI fragment into pGEX-3X; made in house; host or cells: E. coli (OB-R-cyto co-expressed with the ELK tyrosine kinase)
T6 sequence (Q06124 2-224): T5 sequence (Q06124 2-224)
Description: (§2) FIG. 9. Competition for GST-SHP1-SH2 or GST-SHP2-SH2 binding to OB-R-cyto-P by a phosphopeptide containing the sequence surrounding Y986 in OB-R. 200 nM GST-SHP1-SH2 or GST-SHP2-SH2, 15 nM OB-R-cyto-P, with and without 4 μM peptide were incubated together. OB-R-cyto-P was immunoprecipitated with an antibody to the myc epitope tag, and co-precipitating GST-SHP1-SH2 or GST-SHP2-SH2 was visualized with an anti-GST antibody.
as §1, with “After binding either anti-flag mAb, M2, was added (for the phosphopeptide and flag tagged GST-OB-R-cyto) or anti-myc mAb, 9E10, was added (for the myc tagged GST-OB-R-cyto) and the proteins were precipitated with protein G-sepharose.” left out
(§3) In this experiment the SH2 domain, the cytoplasmic domain, and the peptide were mixed and allowed to reach equilibrium. The receptor cytoplasmic domain was precipitated with anti-myc mAb and complexed GST-SHP1-SH2 and GST-SHP2-SH2 were detected by western blot with an anti-GST antibody.

[8] = target: T7, GST-OB-R-cyto/3myc and GST-SHP1-SH2 (Homo sapiens, UniProt P29350); experiment: Competition for binding of GST-OB-R-cyto/3myc and GST-SHP1-SH2; settings: 4 μM phosphopeptide, 15 nM cytoplasmic domain, 200 nM GST-SHP1-SH2
T7 construct: Amino acids 2-221 of SHP1 were cloned as a EcoRI/BglII fragment into pGEX-3X; made in house; host or cells: E. coli (OB-R-cyto co-expressed with the ELK tyrosine kinase)
T7 sequence (P29350 2-221): T4 sequence (P29350 2-221)
Description: as §2
as §1, with “After binding either anti-flag mAb, M2, was added (for the phosphopeptide and flag tagged GST-OB-R-cyto) or anti-myc mAb, 9E10, was added (for the myc tagged GST-OB-R-cyto) and the proteins were precipitated with protein G-sepharose.” left out
as §3

Substance	increase in luciferase activity [1] [fold]	tyrosine phosphorylation of TOBR and downstream signaling molecules [2]	increase in luciferase activity [3] [fold]	competition of EPOR-cyto-Trx for GST-SHP1-SH2 binding [4]	binding to GST-SHP1-SH2 [5]	binding to GST-SHP1-SH2 ([5]; listed as synthetic phosphopeptide from EPOR)	binding to GST-SHP2-SH2 [6]	competition for binding of GST-OB-R-cyto/3myc and GST-SHP2-SH2 [7]	competition for binding of GST-OB-R-cyto/3myc and GST-SHP1-SH2 [8]
NT-3: neurotrophin-3, surrogate ligand used to activate the TrkC-OB-R chimeric receptors	~45	resulted in ligand-dependent tyrosine phosphorylation	~8	–	–	–	–	–	–
CPHLKp-YLYLVVSDDYKDDDDK [EPOR phosphopeptide]	–	–	–	a small amount of competition	bound	Very poor binding	–	–	–
QPFVKp-YATLISNDYKDDDDK [OB-R phosphopeptide]	–	–	–	a small amount of competition	bound	–	bound specifically	no competition	no competition
